Measured values as given in patent US10376499B2, “Combination therapy for treatment of resistant bacterial infections” (priority 2014, dated 2019).

System: A. baumannii
Experiment: MIC by broth microdilution (CLSI), panel of 60 A. baumannii clinical isolates (Example 1)

In the case of colistin, the MIC (strain ARC593, OXA-98) is reported as 0.5 µg/mL, the MIC (strain ARC2058, OXA-95) is reported as 0.5 µg/mL and the MIC (strain ARC2461, OXA-66, TEM-1) is reported as 0.125 µg/mL. It also gave an MIC (strain ARC2462, TEM-1, OXA-66) of 0.125 µg/mL, an MIC (strain ARC2598, OXA*, TEM-1, OXA-113) of 0.25 µg/mL and an MIC (strain ARC2635, OXA-65, OXA-40, TEM-1) of 0.25 µg/mL. For the same substance, the MIC (strain ARC2636, OXA-65, OXA-40, TEM-1) was 0.125 µg/mL, the MIC (strain ARC2674, SHV-5, OXA-113) was 0.25 µg/mL and the MIC (strain ARC2675, SHV-5, OXA-113) was 0.125 µg/mL. For the same substance, the MIC (strain ARC2681, OXA-40, TEM-1, OXA-132) was 0.25 µg/mL, the MIC (strain ARC2682, SHV-5, OXA-113) was 0.25 µg/mL and the MIC (strain ARC2777, OXA-172, TEM-1) was 0.5 µg/mL. It also gave an MIC (strain ARC2778, OXA-40, TEM-1, OXA-65) of 0.25 µg/mL, an MIC (strain ARC2779 (A. baumannii/calcoaceticus complex), OXA-2, VIM-2) of 0.25 µg/mL and an MIC (strain ARC2780 (A. baumannii/calcoaceticus complex), OXA*, OXA-2, IMP-1) of 4 µg/mL. It also gave an MIC (strain ARC2782, OXA-66, OXA-23, TEM-1, PER-1) of 0.125 µg/mL, an MIC (strain ARC2788, OXA-65, TEM-1) of 0.125 µg/mL and an MIC (strain ARC3484, TEM-1, OXA-23, OXA-64) of 0.125 µg/mL. For the same substance, the MIC (strain ARC3485, OXA-82) was 0.25 µg/mL, the MIC (strain ARC3486, OXA-72, OXA-66, TEM-1) was 0.25 µg/mL and the MIC (strain ARC3487, OXA-20, OXA-58, OXA-66) was 0.25 µg/mL. For the same substance, the MIC (strain ARC3488, OXA*, OXA-68) was 2 µg/mL, the MIC (strain ARC3489, OXA*, OXA-68) was 0.25 µg/mL and the MIC (strain ARC3490, TEM-1+, PSE-2, OXA-69) was 0.5 µg/mL. For the same substance, the MIC (strain ARC3491 (A. baumannii/calcoaceticus complex), OXA-215) was 0.5 µg/mL, the MIC (strain ARC3492, OXA-40, OXA-132, TEM-1) was 0.25 µg/mL and the MIC (strain ARC3493, OXA-40, OXA-66) was 32 µg/mL. The MIC (strain ARC3494, OXA-65) was 0.5 µg/mL, the MIC (strain ARC3495, OXA-40, OXA-109) was 0.25 µg/mL and the MIC (strain ARC3513, TEM-1, OXA-23, OXA-65) was 1 µg/mL. The MIC (strain ARC3515, OXA-64, OXA-58) was 0.25 µg/mL, the MIC (strain ARC3657, OXA-130) was 0.5 µg/mL and the MIC (strain ARC3658, OXA-66, PER-1, TEM-1, OXA-23) was 0.25 µg/mL. The MIC (strain ARC3659, OXA-23, OXA*) was 0.25 µg/mL, the MIC (strain ARC3882, OXA-23, NDM-1, OXA-10*) was 0.125 µg/mL and the MIC (strain ARC5073, OXA-23, TEM-1, OXA-64, PER-1) was 0.125 µg/mL. It also gave an MIC (strain ARC5074, GES*, TEM-1, OXA-51) of 0.125 µg/mL, an MIC (strain ARC5075, SHV-5, OXA-113) of 0.25 µg/mL and an MIC (strain ARC5076, TEM-1, OXA-23, OXA-66) of 0.25 µg/mL. For the same substance, the MIC (strain ARC5077, OXA*, OXA-72) was 0.5 µg/mL, the MIC (strain ARC5079, OXA-72, OXA-65) was 0.125 µg/mL and the MIC (strain ARC5080, OXA-71, OXA-40) was 0.25 µg/mL. For the same substance, the MIC (strain ARC5081, OXA-94, OXA-23) was 0.125 µg/mL, the MIC (strain ARC5082, OXA-66, OXA-23) was 0.5 µg/mL and the MIC (strain ARC5083, OXA-66, OXA-23) was 0.125 µg/mL. It also gave an MIC (strain ARC5084, IMP-4(B), OXA-58, OXA-65) of 0.125 µg/mL, an MIC (strain ARC5085, OXA*, TEM-1) of 1 µg/mL and an MIC (strain ARC5086, OXA*, TEM-1, OXA-72, OXA-66) of 0.125 µg/mL. For the same substance, the MIC (strain ARC5087, OXA-66, OXA-23) was 0.25 µg/mL, the MIC (strain ARC5088, OXA-20, OXA-58, OXA-66) was 0.125 µg/mL and the MIC (strain ARC5089, PER*, TEM-1, OXA-23, OXA-66) was 0.125 µg/mL. For the same substance, the MIC (strain ARC5091, OXA-82, OXA-23) was 8 µg/mL and the MIC (strain ARC5092, OXA-23, OXA-64) was over 32 µg/mL.
